Where a name gives a salt, the structure may show the parent alone.
How the values were obtained:
Format in all cases: biochemical
human HSD17B13 = biological target: T1, human HSD17B13 (Homo sapiens, UniProt Q7Z5P4); assay: Substrate screening of steroid and bioactive lipid libraries against purified recombinant HSD17B13 (NADH-linked luciferase assay); details: for HSD17B13 Enzymatic Activity Relative Light Units: 500 μM NAD+, 100 ng enzyme, 3 hours at 23° C.; for HSD17B13 Enzymatic Activity Percent Estradiol Control: normalized to 50 μM estradiol after subtraction of 5% DMSO
T1 sequence (Q7Z5P4 20-300): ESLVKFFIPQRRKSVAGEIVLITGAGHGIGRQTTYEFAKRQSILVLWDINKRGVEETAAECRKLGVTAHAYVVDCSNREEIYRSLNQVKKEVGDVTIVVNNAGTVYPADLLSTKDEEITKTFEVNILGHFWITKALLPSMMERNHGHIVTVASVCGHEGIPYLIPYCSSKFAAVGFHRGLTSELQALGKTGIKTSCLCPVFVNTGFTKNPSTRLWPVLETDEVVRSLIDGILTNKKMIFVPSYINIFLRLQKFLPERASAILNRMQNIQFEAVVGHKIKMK
How it was run: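 Substrates (bioactive lipids 5 μM, steroids 50 μM; 5% DMSO) tested with 500 μM NAD+ and 100 ng recombinant human HSD17B13 in 0.2 M Tris-HCl pH 7.5, 3 h, 23° C. Luminescent NADH detection followed 1 h later; RLU normalized to estradiol (50 μM, 100%) and DMSO (0%) controls.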

HSD17B1 = biological target: T2, HSD17B1 (Homo sapiens, UniProt P14061); assay: Steroid substrate panel against HSD17B family member B1; details: substrate at 50 μM; estradiol set as 100%
T2 construct: made in house
T2 sequence (P14061 1-328): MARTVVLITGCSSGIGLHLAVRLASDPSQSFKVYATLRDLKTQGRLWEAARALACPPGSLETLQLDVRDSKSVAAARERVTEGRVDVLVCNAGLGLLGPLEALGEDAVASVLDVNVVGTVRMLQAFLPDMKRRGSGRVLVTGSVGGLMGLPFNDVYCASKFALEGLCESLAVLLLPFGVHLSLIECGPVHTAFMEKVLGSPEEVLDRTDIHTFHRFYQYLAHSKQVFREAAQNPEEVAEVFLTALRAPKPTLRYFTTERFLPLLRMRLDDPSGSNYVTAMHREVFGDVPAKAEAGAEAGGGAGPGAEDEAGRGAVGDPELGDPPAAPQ
Protocol: (§1) To understand the functional consequences of premature truncation of the HSD17B13 protein due to rs72613567:TA (the associated variant, rs72613567, is an insertion of an adenine adjacent to the donor splice site of exon six (TA allele)), the enzymatic activity of isoforms A and D was evaluated in vitro using recombinant protein and nicotinamide […] dinucleotide as cofactor. Reactions were performed in a final volume of 40 μl of assay buffer (0.2 M Tris-HCl, pH 7.5) which contained 500 μM NAD^+, 5 μM bioactive lipid or 50 μM steroid (all in a final concentration of 5% DMSO), and 100 ng of recombinant human HSD17B13. Reactions were incubated for 3 hours, at 23° C., after which an equal volume detection reagent was added. Following a 1 hour incubation at 23° C., the relative light units (RLUs) were measured on an Envision Plate Reader (Perkin Elmer). Raw RLU values were normalized as percent of control (50 μM estradiol) following subtraction of negative control (5% DMSO) using the following formula: Percent of control (POC)=100×(Sample (RLU)−Negative CTRLaverage)/(Positive CTRLaverage−Negative CTRLaverage).
(§2) In order to determine specificity of compounds with inhibitory activity against HSD17B13, assays for selected members of the HSD17B family which includes HSD17B1-HSD17B14 were established. As a first step, selected family members were expressed, purified and tested for activity a using a steroid substrate panel. Substrates from the steroid panel were tested at 50 μM, using the standard assay protocol. Activity against the substrates for each HSD17B family member were normalized to Percent of Control (POC). The control, estradiol, was set as 100%.

HSD17B2 = biological target: T3, HSD17B2 (Homo sapiens, UniProt P37059); assay: Steroid substrate panel against HSD17B family member B2; details: substrate at 50 μM; estradiol set as 100%
T3 construct: made in house
T3 sequence (P37059 1-387): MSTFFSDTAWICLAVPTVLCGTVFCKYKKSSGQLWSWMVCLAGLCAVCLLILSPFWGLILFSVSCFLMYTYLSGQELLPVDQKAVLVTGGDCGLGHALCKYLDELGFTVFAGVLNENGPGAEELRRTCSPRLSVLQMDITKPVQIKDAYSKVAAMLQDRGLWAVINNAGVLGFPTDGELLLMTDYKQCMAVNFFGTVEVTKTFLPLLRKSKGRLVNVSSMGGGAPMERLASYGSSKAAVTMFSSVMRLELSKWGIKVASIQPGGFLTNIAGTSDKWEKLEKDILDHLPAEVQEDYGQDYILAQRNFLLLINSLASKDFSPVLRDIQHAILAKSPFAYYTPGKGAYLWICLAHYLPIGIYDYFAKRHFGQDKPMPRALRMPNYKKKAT
Protocol: as §1, §2

HSD17B4 = biological target: T4, HSD17B4 (Homo sapiens, UniProt P51659); assay: Steroid substrate panel against HSD17B family member B4; details: substrate at 50 μM; estradiol set as 100%
T4 construct: made in house
T4 sequence (P51659 1-736): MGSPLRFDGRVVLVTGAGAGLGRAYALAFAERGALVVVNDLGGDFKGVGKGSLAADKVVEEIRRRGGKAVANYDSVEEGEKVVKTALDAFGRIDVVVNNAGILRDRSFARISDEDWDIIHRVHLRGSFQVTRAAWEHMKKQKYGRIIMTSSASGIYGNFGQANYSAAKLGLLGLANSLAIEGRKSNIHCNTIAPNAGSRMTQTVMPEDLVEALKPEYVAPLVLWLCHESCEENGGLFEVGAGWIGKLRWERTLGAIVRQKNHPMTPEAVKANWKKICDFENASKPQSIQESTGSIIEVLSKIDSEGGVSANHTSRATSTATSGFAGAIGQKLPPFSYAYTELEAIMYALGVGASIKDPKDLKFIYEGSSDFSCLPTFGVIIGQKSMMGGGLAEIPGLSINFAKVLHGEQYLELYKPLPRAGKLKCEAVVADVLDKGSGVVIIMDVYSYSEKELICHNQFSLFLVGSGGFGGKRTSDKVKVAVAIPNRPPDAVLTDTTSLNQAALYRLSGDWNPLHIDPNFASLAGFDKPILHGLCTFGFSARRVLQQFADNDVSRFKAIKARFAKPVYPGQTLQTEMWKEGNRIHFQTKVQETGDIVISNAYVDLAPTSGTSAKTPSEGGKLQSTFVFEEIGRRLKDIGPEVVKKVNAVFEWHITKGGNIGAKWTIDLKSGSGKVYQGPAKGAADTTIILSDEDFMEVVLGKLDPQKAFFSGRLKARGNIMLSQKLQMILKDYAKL
Protocol: as §1, §2

HSD17B5 = biological target: T5, HSD17B5 (Homo sapiens, UniProt P42330); assay: Steroid substrate panel against HSD17B family member B5; details: substrate at 50 μM; estradiol set as 100%
T5 construct: made in house
T5 sequence (P42330 1-323): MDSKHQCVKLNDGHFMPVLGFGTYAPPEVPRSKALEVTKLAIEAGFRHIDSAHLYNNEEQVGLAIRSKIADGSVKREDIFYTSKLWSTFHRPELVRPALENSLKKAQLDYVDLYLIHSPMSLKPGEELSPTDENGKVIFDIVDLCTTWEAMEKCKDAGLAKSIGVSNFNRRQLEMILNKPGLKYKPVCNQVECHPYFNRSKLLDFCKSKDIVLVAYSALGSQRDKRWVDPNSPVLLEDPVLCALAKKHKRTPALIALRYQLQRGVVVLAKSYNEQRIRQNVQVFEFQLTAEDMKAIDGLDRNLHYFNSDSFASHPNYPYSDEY
Protocol: as §1, §2

HSD17B10 = biological target: T6, HSD17B10 (Homo sapiens, UniProt Q99714); assay: Steroid substrate panel against HSD17B family member B10; details: substrate at 50 μM; estradiol set as 100%
T6 construct: made in house
T6 sequence (Q99714 1-261): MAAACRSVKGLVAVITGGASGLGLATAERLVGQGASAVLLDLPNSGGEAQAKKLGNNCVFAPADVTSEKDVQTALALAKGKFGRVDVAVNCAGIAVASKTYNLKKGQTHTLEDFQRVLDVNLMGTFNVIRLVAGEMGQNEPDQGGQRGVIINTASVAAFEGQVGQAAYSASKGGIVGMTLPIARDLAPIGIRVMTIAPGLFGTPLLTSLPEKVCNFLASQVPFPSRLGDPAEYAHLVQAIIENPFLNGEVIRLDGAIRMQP
Protocol: as §1, §2

HSD17B11 = biological target: T7, HSD17B11 (Homo sapiens, UniProt Q8NBQ5); assay: Steroid substrate panel against HSD17B family member B11; details: substrate at 50 μM; estradiol set as 100%
T7 construct: made in house
T7 sequence (Q8NBQ5 20-300): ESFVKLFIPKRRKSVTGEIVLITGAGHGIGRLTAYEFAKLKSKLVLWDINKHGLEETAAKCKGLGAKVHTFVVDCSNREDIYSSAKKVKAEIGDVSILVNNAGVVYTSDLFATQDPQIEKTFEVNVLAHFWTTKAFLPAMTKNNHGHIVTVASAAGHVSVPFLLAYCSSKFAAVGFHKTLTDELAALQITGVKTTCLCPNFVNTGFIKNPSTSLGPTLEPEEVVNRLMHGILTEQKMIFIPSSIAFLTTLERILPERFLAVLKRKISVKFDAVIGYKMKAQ
Protocol: as §1, §2

[1] = Bioactive Lipid Library, 5 μM bioactive lipid (Estradiol Control 50 μM)
[2] = Bioactive Lipid Library, 5 μM bioactive lipid

Row | Structure (SMILES) | HSD17B13 Enzymatic Activity Relative Light Units (human HSD17B13; Steroid Library, 50 μM steroid) | HSD17B13 Enzymatic Activity Percent Estradiol Control (human HSD17B13; Steroid Library, 50 μM steroid) | Percent of Control (POC), B1 (HSD17B1) | Percent of Control (POC), B2 (HSD17B2) | Percent of Control (POC), B4 (HSD17B4) | Percent of Control (POC), B5 (HSD17B5) | Percent of Control (POC), B10 (HSD17B10) | Percent of Control (POC), B11 (HSD17B11) | HSD17B13 Enzymatic Activity Relative Light Units (human HSD17B13; [1]) | HSD17B13 Enzymatic Activity Percent Estradiol Control (human HSD17B13; [2])
1 | CC1(C)[C@@H](O[C@H]2O[C@H](C(=O)O)[C@@H](O)[C@H](O)[C@H]2O[C@@H]2O[C@H](C(=O)O)[C@@H](O)[C@H](O)[C@H]2O)CC[C@]2(C)[C@H]3C(=O)C=C4[C@@H]5C[C@@](C)(C(=O)O)CC[C@]5(C)CC[C@@]4(C)[C@]3(C)CC[C@@H]12 [Glycyrrhizic acid] | 163600 RLU | 0.05% | −0.1% | 0.0% | 0.7% | 0% | 0.1% | 32.7% |  | 
2 | C[C@]12CC[C@@H](O)C[C@@H]1CC[C@@H]1[C@@H]2CC[C@]2(C)[C@@H](O)CC[C@@H]12 [3a-androstanediol] |  |  | 0.0% | 6.2% | 16.4% | 196% | −0.4% | 0.0% |  | 
3 | CCCCC[C@H](O)/C=C/[C@@H]1[C@@H](CC(=O)CCC(=O)O)[C@@H](O)C[C@H]1O [2,3-dinor-6-keto Prostaglandin F1α (sodium salt)] |  |  |  |  |  |  |  |  | 341800 RLU | 4.64%
4 | O=C(O)CCCCC(=O)CC[C@@H]1[C@@H](CCC(=O)O)[C@@H](O)C[C@H]1O [tetranor-PGFM] |  |  |  |  |  |  |  |  | 367640 RLU | 6.68%
5 | CCCCC/C=C\C/C=C\C/C=C\C=C\[C@H](CCCC(=O)O)OO [5(S)-HpETE] |  |  |  |  |  |  |  |  | 225600 RLU | −4.55%
6 | CCCCCCCC/C=C\CCCCCCCC(=O)O [Oleic Acid] | 17520 RLU | −2.50% |  |  |  |  |  |  |  | 

Reference: patent US11479802B2, “Assays for screening activity of modulators of members of the hydroxy steroid (17-beta) dehydrogenase (HSD17B) family” (Regeneron Pharmaceuticals, Inc., priority 2017, dated 2022)
